According to patent US20190358176A1, “METHODS OF SENSITIZING CANCER CELLS TO IMMUNE CELL KILLING” (University of Pittsburgh - of the Commonwealth System of …, priority 2017, published 2019):

What was measured:
[1] = system: MDA-MB-231 cells; assay: Immune cell killing (sensitization to PBMC-derived LAK); assay type: cell-based, human
Protocol: Peripheral blood mononuclear cells were obtained from healthy volunteers with an established IRB approved protocol, separated from heparinized blood on Ficoll-hypaque (GE Healthcare, Chicago) gradients as previously reported (16). Cells were cultured in RPMI 1640 supplemented with 10% FCS, 1% glutamine, 1% penicillin/streptomycin, and stimulated with 6,000 IU of Interleukin 2 for 24 hours. After incubation, cells were washed with PBS and counted. In parallel, MBA-MB-231 cells were pre-treated in a 384 well plate with vehicle or BCI-215 (3 μM). After 24 hours in culture, medium was replaced and PBMC added in two-fold serial dilutions starting with a 50-fold excess of PBMCs in triplicate. After 24 hours of co-culture, cells were fixed with formaldehyde/Hoechst 33342, washed twice with PBS, and imaged on the ArrayScan II. Cancer cells were identified by their larger nuclei compared with PBMC, setting a size gate in the DAPI channel. In experiments with chemotherapeutics, cells carrying a biosensor consisting of a mitochondrial targeting sequence derived from cytochrome c oxidase VIII linked to GFP that is a surrogate for cytochrome c release from mitochondria (17) were pre-treated for 24 hours with cisplatin (2 μM) or doxorubicin (400 nM), exposed to LAK as above, and cancer cells identified and quantified by green fluorescence. Cell densities were normalized to those in the absence of PBMCs. Mean cell densities from multiple independent experiments were averaged and plotted in GraphPad Prism.

[2] = system: DUSP6/MKP-3 and DUSP1/MKP-1; details: HeLa cells, prior study (12); cited from earlier work
[3] = system: endothelial cell line; details: prior SAR study (12); cited from earlier work
[4] = system: rat hepatocytes; assay: ROS generation in hepatocytes (DHE staining); assay type: cell-based
Protocol: Cells were cultured as above and labeled four hours following drug addition with 4 μM DHE for 2 hours. Hoechst 33342 was added to a 4 μg/ml final concentration during the final hour of incubation. In the presence of ROS, DHE is oxidized to a red fluorescent dye (oxyethidium). Cells were imaged as above and the percentage of oxyethidium-nuclear positive cells calculated based on a threshold set with vehicle treated cells.

[5] = system: ERK, JNK/SAPK, p38, MEK1 and MKK4/SEK1 phosphorylation; assay: Western blot of MAPK cascade phosphorylation; assay type: cell-based, human; details: 20 μM
[6] = system: MDA-MB-231 cells; assay: Detection and quantitation of ROS in cancer cells (CM-H2-DCFDA); assay type: cell-based, human; details: 50 μM
Protocol: Detection and quantitation of ROS in cancer cells was performed as described before (14). Briefly, MDA-MB-231 cells were labeled with Hoechst 33342, loaded with CM-H2-DCFDA (5 μM, 15 min), and treated with test agents for 10 min. After two washes, cells were analyzed for Hoechst and ROS/FITC fluorescence on the ArrayScan II. Cells were classified as positive for ROS if their average FITC intensity exceeded a threshold defined as the average FITC intensity plus one SD from DMSO-treated wells.

[7] = system: zebrafish embryos; assay: ROS generation in zebrafish embryos (DHE); assay type: in vivo; details: developing zebrafish embryos, 48 hpf
Protocol: All procedures involving zebrafish were reviewed and approved by the University of Pittsburgh Institutional Animal Care and Use Committee. Wildtype AB* embryos were kept in E3 medium (5 mM NaCl, 0.17 mM KCl, 0.33 mM CaCl2, 0.33 mM MgSO4). At 48 hours post fertilization (hpf), embryos were arrayed into the wells of a 96 well microplate and treated with vehicle (0.5% DMSO) or test agents. After a 30-min pre-incubation, embryos were labeled with a solution of 10 μM DHE and 40 μg/mL MS222 (tricaine methanesulfonate, Sigma) in E3 to restrict movement during imaging. Six hours after DHE loading, embryos were imaged on an ArrayScan II using a 2.5× objective. Images were analyzed for oxyethidium fluorescence with the TargetActivation Bioapplication using the MEAN_ObjectAvgIntenCh1 parameter.

[8] = system: rat hepatocytes; assay: Five-day hepatocyte toxicity (PI positive cells); assay type: cell-based; details: rat hepatocytes, 5-day exposure
Protocol: Rat hepatocytes were isolated using standard two step collagenase digestion (15) and sub-cultivated at 14,000 hepatocytes/well in collagen-1 coated 384 well plates in Williams E Medium supplemented with 10% FBS, 2 mM L-glutamine and 50 U/ml Penicillin and streptomycin. After 4 hours, medium was decanted and replaced with Hepatocyte Maintenance Media (Williams E supplemented with 1.25 mg/ml bovine serum albumin, 6.25 μg/ml human insulin, 100 nM dexamethasone, 6.25 μg/ml human transferrin, 6.25 ng/ml selenous acid, 2 mM L-glutamine, 15 mM HEPES, 100 U/mL penicillin, and 100 U/mL streptomycin). After overnight culture, cells were treated with concentration gradients of test agents. One hour after compound addition, cells were labeled with 200 nM TMRE and 4 μg/ml Hoechst 33342 for 45 min, imaged live on an ArrayScan VTI using a 10× objective, and images were analyzed with the Compartmental Bioapplication. Mitochondria were identified as cytosolic spots by size and brightness. The final parameter was % HIGH RingSpotAvgIntenCh2 (i.e., percentage of cells with TMRE puncta in the cytoplasm based on a threshold set with vehicle treated cells).
A gelling solution of 1.25 mg/ml rat tail collagen type I in pH 7.2 90:10 (v/v) Williams E media/10×HBSS was overlaid onto the rat hepatocytes. The collagen gel was incubated for 1 hour at 37° C., 5% CO2. The collagen sandwich cultures were then challenged for 5 days to test compounds in Hepatocyte Maintenance Media, without refeeding. A 10× solution of 40 μg/ml Hoechst 33342 was added during the final 2 hours of incubation followed by a 10× solution of 20 μg/ml PI for 1 hour. Cells were imaged and the percentage of PI positive cells calculated as above.

[9] = system: MDA-MB-231 cells; assay: Colony formation in three dimensional matrigel culture; assay type: cell-based, human
Protocol: MDA-MB-231 cells (2000/well) transduced with a biosensor consisting of EGFP with a mitochondrial targeting sequence derived from cytochrome-C oxidase subunit VIII (52) were trypsinized, resuspended in RPMI1640 containing 2% FBS and 2% matrigel, and seeded in 384 well microplates on a 15 μl cushion of undiluted matrigel. After 24 hours, cells were treated with various concentrations of BCI-215 or vehicle (0.2% DMSO). After two days, drug was washed out and cells allowed to expand for an additional three to five days. At the end of the study, medium was replaced with HBSS containing 4 μg/ml PI for 1 hour, and plates scanned live on an ImageXpress Ultra HCS reader, acquiring z-stacks (4× objective, 20 planes, 50 μm) in the green and red channels. Cell numbers were quantified from maximum projection images using the Multiwavelength Cell Scoring application.

SMILES: O=C1/C(=C/c2ccccc2)C(NC2CCCCC2)c2cc(Br)ccc21 (stereo not shown) [BCI-215]
- difference in killing versus vehicle ([1]; BCI-215 3 μM pre-treatment versus vehicle): well over three log differences in killing
- LAK number at maximal sensitization ([1]; MDA-MB-231 pre-treated with BCI-215 3 μM for 24 hours): 1000 LAK/well
- sensitization to LAK activity ([1]; pre-treated 24 hours: BCI-215 3 μM, cisplatin 2 μM, doxorubicin 400 nM): sensitization at lower effector ratios than cisplatin or doxorubicin
- effect on ectopic DUSP6/MKP-3 and DUSP1/MKP-1 expression [2]: override the effects
- toxicity to an endothelial cell line [3]: non-toxic
- generation of ROS in hepatocytes (DHE) [4]: does not Generate Reactive Oxygen Species
- activation of upstream kinases MEK1 and MKK4/SEK1 ([5]; MDA-MB-231, BT-20 and HeLa, 1 hour): activated MEK1 and MKK4/SEK1
- activation (phosphorylation) of ERK, JNK/SAPK and p38 ([5]; MDA-MB-231 cells): activated all three kinases
- ROS generation at 50 μM [6]: did not generate ROS
- generation of ROS in zebrafish embryos (DHE) [7]: does not Generate Reactive Oxygen Species
- hepatocyte toxicity, cell death (PI positive cells) [8]: completely devoid of hepatocyte toxicity up to 100
- cell lysis (PI positivity) ([9]; longer-term 3D matrigel assay): pronounced cell lysis
- colony formation ([9]; matrigel-on-top model, two days of exposure then washout): inhibited colony formation
